# US20230096766A1, “AMINO ACID HAVING FUNCTIONAL GROUP CAPABLE OF INTERMOLECULAR HYDROGEN BONDING, PEPTIDE COMPOUND CONTAINING SAME AND METHOD FOR PRODUCTION THEREOF” (Chugai Seiyaku Kabushiki Kaisha, priority 2018, published 2023)
# *1 amine or outer side, *2 acyl side, *3 side chain or, on linkers, in order; H or OH if unused. Where a SMILES comes first, the peptide text is derived from it. Bridges are numbered along the chain shown (N, C = ends). [ ]: non-standard residue; d: D form. The star is where a group is joined. Phe(3-OMe,4-CONHMs) = COc1cc(C[C@H](N)C(=O)O)ccc1C(=O)NS(C)(=O)=O; NMeAbu(3,3-F2-piperidino) = CN[C@@H](CCN1CCCC(F)(F)C1)C(=O)O; Phe(3-CONHMe,4-OMe) = CNC(=O)c1cc(C[C@H](N)C(=O)O)ccc1OC; NMeAbu(4-morpholino) = CN[C@@H](CCN1CCOCC1)C(=O)O; Glu(NHSO2Me) = CS(=O)(=O)NC(=O)CC[C@H](N)C(=O)O; Phe(4-COOH) = N[C@@H](Cc1ccc(C(=O)O)cc1)C(=O)O; X11 = CNC(=O)c1ccc(CCN(CC(=O)[*:2])[*:1])cc1OC; NMePhe(3-Cl) = CN[C@@H](Cc1cccc(Cl)c1)C(=O)O; NMeW = CN[C@@H](Cc1c[nH]c2ccccc12)C(=O)O; NMehPhe = CN[C@@H](CCc1ccccc1)C(=O)O; X7 = O=C(C[C@H](COCCO)N[*:1])[*:2]; Hyp = O=C(O)[C@@H]1C[C@@H](O)CN1; NMeF = CN[C@@H](Cc1ccccc1)C(=O)O; NMeGABA = CN(CCCC(=O)[*:2])[*:1]; NMeI = CC[C@H](C)[C@H](NC)C(=O)O; Butyl(3-Me,3-OH) = CC(C)(O)CC*; NMeL = CN[C@@H](CC(C)C)C(=O)O; Propyl(2R-OH) = C[C@@H](O)C*; NMeV = CN[C@H](C(=O)O)C(C)C; NMeAbu = CC[C@H](NC)C(=O)O; NMeA = CN[C@@H](C)C(=O)O; Piperidide = C1CCN(*)CC1; Me2NCH2CH2 = CN(C)CC*; NBuGly = CCCCNCC(=O)O; NPrGly = CCCNCC(=O)O; Propyl(3-OH) = OCCC*; Ethyl(2-OH) = OCC*; N(OH)Me = CN(O)*; Sar = CNCC(=O)O; tBu = CC(C)(C)*
# Test: in vitro
# Details: human, Caco-2, Caco-2
row,SMILES,Papp
1,CCCCN1CC(=O)N(C)[C@@H](C(C)C)C(=O)N[C@H](C(=O)N2CCCCC2)CC(=O)N(C)[C@@H](C)C(=O)N[C@@H](CC(C)C)C(=O)N(C)[C@@H](CC(C)C)C(=O)N(C)[C@@H](Cc2ccccc2)C(=O)N[C@@H](CC(C)C)C(=O)N(C)[C@@H](Cc2ccccc2)C(=O)N(C)[C@@H](CCN2CCOCC2)C(=O)N[C@@H]([C@@H](C)O)C1=O [pd453] ([NMeA]L[NMeL][NMeF]L[NMeF][NMeAbu(4-morpholino)]T[NBuGly][NMeV]D-Piperidide; lactam N-11),2.3 ×10⁻⁶ cm/s
2,"CC(C)C[C@@H]1NC(=O)[C@H](C)N(C)C(=O)C[C@@H](C(=O)N2CCCCC2)NC(=O)[C@H](C(C)C)N(C)C(=O)CN(C)C(=O)[C@H]([C@@H](C)O)NC(=O)[C@H](CCN2CCCC(F)(F)C2)N(C)C(=O)[C@H](Cc2ccccc2)N(C)C(=O)[C@H](CC(C)C)NC(=O)[C@H](Cc2ccccc2)N(C)C(=O)[C@H](CC(C)C)N(C)C1=O [pd391] ([NMeA]L[NMeL][NMeF]L[NMeF][NMeAbu(3,3-F2-piperidino)]T[Sar][NMeV]D-Piperidide; lactam N-11)",2.4 ×10⁻⁶ cm/s
3,CC(C)C[C@@H]1NC(=O)[C@H](CC(C)C)N(C)C(=O)CCCN(C)C(=O)C[C@@H](C(=O)N2CCCCC2)NC(=O)[C@H](CC(C)C)N(C)C(=O)[C@H](CC(C)C)N(C)C(=O)[C@H]([C@@H](C)O)NC(=O)[C@H](CC(C)C)N(C)C(=O)[C@H](COCCN(C)C)NC(=O)[C@H](Cc2ccccc2)N(C)C(=O)[C@H](Cc2ccccc2)N(C)C1=O [pd54] ([NMeGABA][NMeL]L[NMeF][NMeF]S(Me2NCH2CH2)[NMeL]T[NMeL][NMeL]D-Piperidide; lactam N-11),0.073 ×10⁻⁶ cm/s
4,CCCCN1CC(=O)N(C)[C@@H](CC(C)C)C(=O)N[C@@H](CCC(=O)NS(C)(=O)=O)C(=O)N(C)[C@@H](Cc2cccc(Cl)c2)C(=O)N(C)[C@@H](C(C)C)C(=O)N[C@H](C(=O)N2CCCCC2)CC(=O)N[C@H](CC(C)C)C(=O)N(C)[C@@H](Cc2cccc(Cl)c2)C(=O)N[C@@H](CC(C)C)C(=O)N(C)[C@@H](CC)C(=O)N[C@@H]([C@@H](C)O)C1=O [pd61] ([dL][NMePhe(3-Cl)]L[NMeAbu]T[NBuGly][NMeL][Glu(NHSO2Me)][NMePhe(3-Cl)][NMeV]D-Piperidide; lactam N-11),< 0.094 ×10⁻⁶ cm/s

# Same assay, conditions: human, Caco-2, Caco-2 (cm/sec)
row,SMILES,Papp
1,"CCCCN1CC(=O)N(C)[C@@H](CC(C)C)C(=O)N[C@@H](Cc2ccc(C(=O)NS(C)(=O)=O)c(OC)c2)C(=O)N(C)[C@@H](CC(C)C)C(=O)N(C)[C@@H](CC(C)C)C(=O)N[C@H](C(=O)N2CCCCC2)CC(=O)N[C@H](CC(C)C)C(=O)N(C)[C@@H](Cc2ccccc2)C(=O)N[C@@H](C(C)C)C(=O)N(C)[C@@H](CC(C)C)C(=O)N[C@@H]([C@@H](C)O)C1=O [AP136] ([dL][NMeF]V[NMeL]T[NBuGly][NMeL][Phe(3-OMe,4-CONHMs)][NMeL][NMeL]D-Piperidide; lactam N-11)",0.47 ×10⁻⁶ cm/s
2,CCCN1CC(=O)N(C)[C@@H](CC(C)C)C(=O)N[C@@H](CC(C)C)C(=O)N(C)[C@@H](Cc2ccccc2)C(=O)N(C)[C@@H](CC(C)C)C(=O)N[C@H](C(=O)N2CCCCC2)CC(=O)N[C@H](CC(C)C)C(=O)N(C)[C@@H](Cc2ccccc2)C(=O)N[C@@H](COCCO)CC(=O)N(C)[C@@H](CC(C)C)C(=O)N[C@@H]([C@@H](C)O)C1=O [AP20] ([dL][NMeF][X7][NMeL]T[NPrGly][NMeL]L[NMeF][NMeL]D-Piperidide; lactam N-11),0.37 ×10⁻⁶ cm/s
3,CCCCN1CC(=O)N(C)[C@@H](CC(C)C)C(=O)N[C@@H](COCCCO)C(=O)N(C)[C@@H](Cc2cccc(Cl)c2)C(=O)N(C)[C@@H](CC(C)C)C(=O)N[C@H](C(=O)N2CCCCC2)CC(=O)N[C@H](C(C)C)C(=O)N(C)[C@@H](Cc2ccccc2)C(=O)N[C@@H](CC(C)C)C(=O)N(C)[C@@H](CC(C)C)C(=O)N[C@@H]([C@@H](C)O)C1=O [AP98] ([dV][NMeF]L[NMeL]T[NBuGly][NMeL]S(Propyl(3-OH))[NMePhe(3-Cl)][NMeL]D-Piperidide; lactam N-11),0.16 ×10⁻⁶ cm/s
4,CC[C@H](C)[C@@H]1NC(=O)[C@H](CC(C)C)N(C)C(=O)CCCN(C)C(=O)C[C@@H](C(=O)N2CCCCC2)NC(=O)[C@H](CC(C)C)N(C)C(=O)[C@H](C)N(C)C(=O)[C@H](Cc2c[nH]c3ccccc23)NC(=O)[C@H](CC(C)C)N(C)C(=O)[C@H](COC(C)(C)C)NC(=O)[C@H](CC(C)C)N(C)C(=O)[C@H](CC(C)C)N(C)C1=O [pd110] ([NMeGABA][NMeL]I[NMeL][NMeL]S(tBu)[NMeL]W[NMeA][NMeL]D-Piperidide; lactam N-11),0.29 ×10⁻⁶ cm/s
5,CC(C)C[C@@H]1NC(=O)[C@H](Cc2ccccc2)N(C)C(=O)[C@H]2CCCN2C(=O)C[C@@H](C(=O)N2CCCCC2)NC(=O)[C@H](Cc2ccccc2)N(C)C(=O)[C@H](Cc2ccccc2)N(C)C(=O)[C@H](COC(C)(C)C)NC(=O)[C@H](CC(C)C)N(C)C(=O)CN(C)C(=O)[C@H]([C@@H](C)O)NC(=O)[C@H](CC(C)C)N(C)C1=O [pd206] ([dP][NMeF]L[NMeL]T[Sar][NMeL]S(tBu)[NMeF][NMeF]D-Piperidide; lactam N-11),1.8 ×10⁻⁶ cm/s
6,CC[C@H](C)[C@H]1C(=O)N2CCC[C@H]2C(=O)N(C)[C@@H](CC(C)C)C(=O)N[C@@H](COC(C)(C)C)C(=O)N2C[C@H](OCCO)C[C@H]2C(=O)N[C@@H]([C@@H](C)O)C(=O)N(C)[C@@H](CC(C)C)C(=O)N(C)[C@@H](CC(C)C)C(=O)N(C)[C@@H](CC(C)C)C(=O)N[C@H](C(=O)N2CCCCC2)CC(=O)N[C@H](CC(C)C)C(=O)N1C [AP238] ([dL][NMeI]P[NMeL]S(tBu)[Hyp](Ethyl(2-OH))T[NMeL][NMeL][NMeL]D-Piperidide; lactam N-11),2 ×10⁻⁶ cm/s
7,CC(C)C[C@@H]1NC(=O)[C@H](Cc2c[nH]c3ccccc23)N(C)C(=O)[C@@H](C(C)C)NC(=O)C[C@@H](C(=O)N2CCCCC2)NC(=O)[C@H](CC(C)C)N(C)C(=O)[C@H](CC(C)C)N(C)C(=O)[C@H](COC(C)(C)C)NC(=O)[C@H](CC(C)C)N(C)C(=O)CN(C)C(=O)[C@H]([C@@H](C)O)NC(=O)[C@H](CC(C)C)N(C)C1=O [pd106] ([dV][NMeW]L[NMeL]T[Sar][NMeL]S(tBu)[NMeL][NMeL]D-Piperidide; lactam N-11),0.36 ×10⁻⁶ cm/s
8,CCCCN1CC(=O)N(C)[C@@H](C)C(=O)N[C@@H](COC(C)(C)C)C(=O)N(C)[C@@H](CC(C)C)C(=O)N(CCc2ccc(C(=O)NC)c(OC)c2)CC(=O)N[C@H](C(=O)N2CCCCC2)CC(=O)N[C@H](CC(C)C)C(=O)N(C)[C@@H](Cc2ccccc2)C(=O)N[C@@H](CC(C)C)C(=O)N(C)[C@@H](CC(C)C)C(=O)N[C@@H]([C@@H](C)O)C1=O [AP220] ([dL][NMeF]L[NMeL]T[NBuGly][NMeA]S(tBu)[NMeL][X11]D-Piperidide; lactam N-11),0.8 ×10⁻⁶ cm/s
9,CC[C@H](C)[C@@H]1NC(=O)[C@H](CC(C)C)N(C)C(=O)[C@@H](C)NC(=O)C[C@@H](C(=O)N2CCCCC2)NC(=O)[C@H](C(C)C)N(C)C(=O)[C@H](CC(C)C)N(C)C(=O)[C@H](COC(C)(C)C)NC(=O)[C@H](CC(C)C)N(C)C(=O)CN(C)C(=O)[C@H](Cc2c[nH]c3ccccc23)NC(=O)[C@H](CC(C)C)N(C)C1=O [pd108] ([dA][NMeL]I[NMeL]W[Sar][NMeL]S(tBu)[NMeL][NMeV]D-Piperidide; lactam N-11),0.87 ×10⁻⁶ cm/s
10,CC(C)C[C@H]1C(=O)N[C@@H](Cc2ccc(O)cc2)C(=O)N(C)CC(=O)N(C)[C@@H](C)C(=O)N(C)[C@@H](CC(C)C)C(=O)N[C@@H](COC(C)(C)C)C(=O)N(C)[C@@H](C(C)C)C(=O)N[C@H](C(=O)N2CCCCC2)CC(=O)N(C)CC(=O)N(C)[C@@H](Cc2ccccc2)C(=O)N[C@@H](C(C)C)C(=O)N1C [pd115] ([Sar][NMeF]V[NMeL]Y[Sar][NMeA][NMeL]S(tBu)[NMeV]D-Piperidide; lactam N-11),0.22 ×10⁻⁶ cm/s
11,"CC[C@H](C)[C@@H]1NC(=O)[C@H](Cc2ccccc2)N(C)C(=O)CN(C)C(=O)C[C@@H](C(=O)N2CCCCC2)NC(=O)[C@H](CC(C)C)N(C)C(=O)[C@H](COCCC(C)(C)O)NC(=O)[C@H](CC(C)C)N(C)C(=O)[C@H](CCc2ccccc2)N(C)C(=O)CN(C)C(=O)[C@H]([C@@H](C)O)NC(=O)[C@H](CC(C)C)N(C)C1=O [AP58] ([Sar][NMeF]I[NMeL]T[Sar][NMehPhe][NMeL]S(Butyl(3-Me,3-OH))[NMeL]D-Piperidide; lactam N-11)",0.49 ×10⁻⁶ cm/s
12,CCCCN1CC(=O)N(C)[C@@H](CC(C)C)C(=O)N[C@@H](COC(C)(C)C)C(=O)N(C)[C@@H](Cc2ccccc2)C(=O)N(C)[C@@H](CC(C)C)C(=O)N[C@H](C(=O)N2CCCCC2)CC(=O)N[C@H](C(C)C)C(=O)N(C)[C@@H](Cc2ccccc2)C(=O)N[C@@H](COC[C@@H](C)O)C(=O)N(C)[C@@H](CC(C)C)C(=O)N[C@@H]([C@@H](C)O)C1=O [AP71] ([dV][NMeF]S(Propyl(2R-OH))[NMeL]T[NBuGly][NMeL]S(tBu)[NMeF][NMeL]D-Piperidide; lactam N-11),0.71 ×10⁻⁶ cm/s
13,"CC[C@H](C)[C@@H]1NC(=O)[C@H](CC(C)C)N(C)C(=O)CN(C)C(=O)C[C@@H](C(=O)N2CCCCC2)NC(=O)[C@H](CC(C)C)N(C)C(=O)[C@H](Cc2ccc(OC)c(C(=O)NC)c2)NC(=O)[C@H](CC(C)C)N(C)C(=O)[C@H](Cc2cccc(Cl)c2)N(C)C(=O)CN(C)C(=O)[C@H]([C@@H](C)O)NC(=O)[C@H](CC(C)C)N(C)C1=O [AP42] ([Sar][NMeL]I[NMeL]T[Sar][NMePhe(3-Cl)][NMeL][Phe(3-CONHMe,4-OMe)][NMeL]D-Piperidide; lactam N-11)",0.25 ×10⁻⁶ cm/s
14,CC(C)C[C@@H]1NC(=O)[C@H](CC(C)C)N(C)C(=O)C[C@@H](C(=O)N2CCCCC2)NC(=O)[C@H](CC(C)C)N(C)C(=O)CN(C)C(=O)[C@H]([C@@H](C)O)NC(=O)[C@H](C(C)C)N(C)C(=O)[C@H](CC(C)C)N(C)C(=O)[C@H](Cc2ccc(C(=O)N(C)O)cc2)NC(=O)[C@H](CC(C)C)N(C)C(=O)[C@H](CC(C)C)N(C)C1=O [AP253] ([NMeL]L[NMeL][NMeL][Phe(4-COOH)](N(OH)Me)[NMeL][NMeV]T[Sar][NMeL]D-Piperidide; lactam N-11),0.12 ×10⁻⁶ cm/s
